Values quoted from earlier work in patent US7847105B2, “Methods and compounds for preparing CC-1065 analogs” (Medarex, Inc., priority 2005, dated 2010).

Legend:
[1] = test system: experimental animals; conditions: reason why it cannot be used in humans
[2] = both in vitro and in experimental animals

## CC-1065
[1]
  toxicity in experimental animals: causes delayed death
[2]
  antitumor and antimicrobial activity: potent antitumor and antimicrobial activity
